Experiment [1] concerns the target T1, LK35.2-hPD-L1 cells / PE-labeled PD-1-Ig (Homo sapiens, UniProt Q9NZQ7).
T1 construct: expressed in transfected cells; host or cells: LK35.2 mouse B cell line
Kind of experiment: LK35.2-hPD-L1 cell binding high-content screening assay. It counts as cell-based. Particulars: cluster symbol, read-out: CBA IC50 cluster. Put shortly: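 Mouse LK35.2 B cells stably overexpressing human PD-L1 were cultured overnight in RPMI with 10% FCS, then given compound and PE-labeled human PD-1-Ig (1 nM final) for 1 h at 37 °C. After three dPBS washes, bound fluorescence was quantified by high-content imaging.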

The target in another experiment is T2, Human PD-L1/PD-1 (Homo sapiens, UniProt Q9NZQ7).
T2 construct: made in house; host or cells: HEK293T
T2 sequence (Q9NZQ7 with tags, fused parts or gaps): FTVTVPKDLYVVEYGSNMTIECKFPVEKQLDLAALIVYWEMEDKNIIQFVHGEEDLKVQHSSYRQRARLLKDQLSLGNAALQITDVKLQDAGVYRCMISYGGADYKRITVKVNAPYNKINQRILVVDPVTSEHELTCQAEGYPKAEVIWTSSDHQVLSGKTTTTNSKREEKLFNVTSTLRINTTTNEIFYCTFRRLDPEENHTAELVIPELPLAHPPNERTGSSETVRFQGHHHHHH
Kind of experiment: HTRF PD-1-Ig/PD-L1-His binding assay (human PD-L1). Particulars: cluster symbol; read-out: HTRF IC50 cluster. The essentials:
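Ig- and His-fused extracellular PD-1/PD-L1 binding in BSA/Tween-20 dPBS. HTRF with Eu anti-Ig (1 nM final) and APC anti-His (20 nM final).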
A general note: In TR-FRET formats the signal depends on donor and acceptor labels being close together.

The mark [2] stands for this setting: cell binding assay, cell line not given.
The mark [3] stands for this setting: cell line of CBA not given (LK35.2-hPD-L1 or 293T-hPD-L1).

Read-outs that look alike come from different tables or passages of the source. Positions of bridges follow the written chain, without caps; N, C: chain ends. Non-standard residues stand in square brackets, D forms with d. Residues, ends and D or L forms follow the SMILES beside them. ξ: configuration not given here. Phe(4-CH2NH2) = NCc1ccc(C[C@H](N)C(=O)O)cc1; Phe(3-F) = N[C@@H](Cc1cccc(F)c1)C(=O)O; Bta = N[C@@H](Cc1csc2ccccc12)C(=O)O; Hyp = O=C(O)[C@@H]1C[C@@H](O)CN1; NMeF = CN[C@@H](Cc1ccccc1)C(=O)O; NMeNle = CCCC[C@H](NC)C(=O)O; NMeM = CN[C@@H](CCSC)C(=O)O; NMeA = CN[C@@H](C)C(=O)O; dAze = O=C(O)[C@H]1CCN1; Dap = NC[C@H](N)C(=O)O; ξC = NC(CS)C(=O)O; Sar = CNCC(=O)O A value given as a limit tells only on which side of the number the result lay.

T1 sequence (Q9NZQ7 19-290): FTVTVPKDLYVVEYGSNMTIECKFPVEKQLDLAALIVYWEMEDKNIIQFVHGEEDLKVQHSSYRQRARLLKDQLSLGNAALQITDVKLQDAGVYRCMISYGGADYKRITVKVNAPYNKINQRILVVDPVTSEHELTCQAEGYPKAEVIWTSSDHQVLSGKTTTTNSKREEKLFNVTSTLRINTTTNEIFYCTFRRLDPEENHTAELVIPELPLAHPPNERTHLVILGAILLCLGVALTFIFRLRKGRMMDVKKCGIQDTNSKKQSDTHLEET

For `CCCC[C@H]1C(=O)N2CCC[C@@H]2C(=O)N[C@@H](CCCN)C(=O)N[C@H](C(=O)NCC(N)=O)CSCC(=O)N[C@@H](Cc2ccc(O)cc2)C(=O)N(C)[C@@H](C)C(=O)N[C@@H](CC(N)=O)C(=O)N2CCC[C@H]2C(=O)N[C@@H](Cc2cnc[nH]2)C(=O)N[C@@H](CC(C)C)C(=O)N2CCC[C@H]2C(=O)N[C@@H](Cc2c[nH]c3ccccc23)C(=O)N[C@@H](CO)C(=O)N[C@@H](Cc2c[nH]c3ccccc23)C(=O)N1C` [Example 5011] (HELM PEPTIDE1{[O=C(C[*:3])[*:2]].Y.[meA].N.P.H.L.P.W.S.W.[CCCC[C@@H](C(=O)[*:2])N(C)[*:1]].[dP].[Orn].C.G.[am]}$PEPTIDE1,PEPTIDE1,1:R3-15:R3$$$V2.0), the IC50 – broadly, the midpoint of a concentration-inhibition curve – in experiment [1] (setting [2]) fell in the range of 4.78 to 72.9 nM; at Human PD-L1/PD-1, 6.76 to 30.3 nM.
Regarding `CCCC[C@H]1C(=O)N(C)[C@@H](CCCC)C(=O)N[C@@H](CCC(=O)O)C(=O)N[C@H](C(=O)NCC(N)=O)CSCC(=O)N[C@@H](Cc2ccc(O)cc2)C(=O)N(C)[C@@H](C)C(=O)N[C@@H](CC(N)=O)C(=O)N2CCC[C@H]2C(=O)N[C@@H](Cc2c[nH]cn2)C(=O)N[C@@H](CCC(N)=O)C(=O)N2C[C@H](O)C[C@H]2C(=O)N[C@@H](Cc2c[nH]c3ccccc23)C(=O)N[C@@H](CO)C(=O)N[C@@H](Cc2c[nH]c3ccccc23)C(=O)N1C` [Example 5126] ({CH2CO}-Y[NMeA]NPHQ[Hyp]WSW[NMeNle][NMeNle]ECG-NH2; thioether N-14), the concentration for half-maximal inhibition (IC50) in experiment [1] (setting [2]) lay within 4.78 to 72.9 nM; on Human PD-L1/PD-1, 0.385 to 6.74 nM.
As for `CCCC[C@H]1C(=O)N(C)CC(=O)N[C@@H](CC(=O)O)C(=O)N[C@@H](C(C)C)C(=O)N(C)[C@@H](Cc2ccccc2)C(=O)N[C@@H](Cc2ccc(O)cc2)C(=O)N(C)CC(=O)N[C@@H](Cc2c[nH]c3ccccc23)C(=O)N[C@@H](Cc2ccc(O)cc2)C(=O)N[C@@H](Cc2c[nH]cn2)C(=O)N[C@H](C(=O)NCC(N)=O)CSCC(=O)N[C@@H](Cc2ccccc2)C(=O)N(C)[C@@H](Cc2ccccc2)C(=O)N1C` [Example 3165] (HELM PEPTIDE1{[O=C(C[*:3])[*:2]].F.[meF].[CCCC[C@@H](C(=O)[*:2])N(C)[*:1]].[Sar].D.V.[meF].Y.[Sar].W.Y.H.C.G.[am]}$PEPTIDE1,PEPTIDE1,1:R3-14:R3$$$V2.0), the IC50 lay within 4.78 to 72.9 nM in experiment [1] (setting [3]) and 6.76 to 30.3 nM on Human PD-L1/PD-1.
Regarding `CCCC[C@H]1C(=O)N2CC[C@@H]2C(=O)N[C@@H](CC(=O)O)C(=O)N[C@@H](C(C)C)C(=O)N(C)[C@@H](Cc2ccccc2)C(=O)N[C@@H](Cc2ccc(O)cc2)C(=O)N(C)CC(=O)N[C@@H](Cc2c[nH]c3ccccc23)C(=O)N[C@@H](Cc2ccc(O)cc2)C(=O)N[C@@H](CC(C)C)C(=O)N[C@H](C(=O)NCC(N)=O)CSCC(=O)N[C@@H](Cc2ccccc2)C(=O)N(C)[C@@H](Cc2ccccc2)C(=O)N1C` [Example 3582] ({CH2CO}-F[NMeF][NMeNle][dAze]DV[NMeF]Y[Sar]WYLCG-NH2; thioether N-13), the values for the IC50 (in experiment [1] (setting [2]); at Human PD-L1/PD-1) were 4.78 to 72.9 nM and 6.76 to 30.3 nM, respectively.
For the compound `CCCC[C@H]1C(=O)N(C)CC(=O)N[C@@H](CC(=O)O)C(=O)N[C@@H](C(C)C)C(=O)N(C)[C@@H](Cc2ccccc2)C(=O)N[C@@H](Cc2ccc(CN)cc2)C(=O)N(C)CC(=O)N[C@@H](Cc2c[nH]c3ccccc23)C(=O)N[C@@H](Cc2ccc(O)cc2)C(=O)N[C@@H](CC(C)C)C(=O)N[C@H](C(=O)NCC(N)=O)CSCC(=O)N[C@@H](Cc2cccc(F)c2)C(=O)N(C)[C@@H](Cc2ccccc2)C(=O)N1C` [Example 3124] ({CH2CO}-[Phe(3-F)][NMeF][NMeNle][Sar]DV[NMeF][Phe(4-CH2NH2)][Sar]WYLCG-NH2; thioether N-13), the results for the IC50 (in experiment [1] (setting [3]); at Human PD-L1/PD-1) were 0.158 to 4.71 nM and 6.76 to 30.3 nM, respectively.
For the compound `CCCC[C@H]1C(=O)N[C@@H](C)C(=O)NC(C(=O)NCC(N)=O)CSCC(=O)N[C@@H](Cc2ccc(O)cc2)C(=O)N(C)[C@@H](C)C(=O)N[C@@H](CC(N)=O)C(=O)N2CCC[C@H]2C(=O)N[C@@H](CN)C(=O)N[C@@H](CC(C)C)C(=O)N2CCC[C@H]2C(=O)N[C@@H](Cc2c[nH]c3ccccc23)C(=O)N[C@@H](CO)C(=O)N[C@@H](Cc2c[nH]c3ccccc23)C(=O)N(C)[C@@H](CCSC)C(=O)N1C` (stereo partly shown) [Example 9093] ({CH2CO}-Y[NMeA]NP[Dap]LPWSW[NMeM][NMeNle]A[ξC]G-NH2; thioether N-14), the IC50 lay in the range of 4.78 to 72.9 nM in experiment [1] (setting [2]) and 6.76 to 30.3 nM on Human PD-L1/PD-1.
As to `CCCC[C@H]1C(=O)N(C)[C@@H](CCCC)C(=O)N[C@@H](CCCNC(=N)N)C(=O)NC(C(=O)NCC(N)=O)CSCC(=O)N[C@@H](Cc2ccc(O)cc2)C(=O)N(C)[C@@H](C)C(=O)N[C@@H](CC(N)=O)C(=O)N2CCC[C@H]2C(=O)N[C@@H](Cc2cnc[nH]2)C(=O)N[C@@H](CO)C(=O)N2C[C@H](O)C[C@H]2C(=O)N[C@@H](Cc2c[nH]c3ccccc23)C(=O)N[C@@H](CO)C(=O)N[C@@H](Cc2c[nH]c3ccccc23)C(=O)N1C` (stereo partly shown) [Example 9069] ({CH2CO}-Y[NMeA]NPHS[Hyp]WSW[NMeNle][NMeNle]R[ξC]G-NH2; thioether N-14), the IC50 in experiment [1] (setting [2]) lay within 0.158 to 4.71 nM; at Human PD-L1/PD-1, 0.385 to 6.74 nM.
As for `CCCC[C@H]1C(=O)N(C)CC(=O)N[C@@H](CC(=O)O)C(=O)N[C@@H](C(C)C)C(=O)N(C)[C@@H](Cc2ccccc2)C(=O)N[C@@H](Cc2ccc(O)cc2)C(=O)N(C)CC(=O)N[C@@H](Cc2csc3ccccc23)C(=O)N[C@@H](Cc2ccc(O)cc2)C(=O)N[C@@H](CC(C)C)C(=O)N[C@H](C(=O)NCC(N)=O)CSCC(=O)N[C@@H](Cc2ccccc2)C(=O)N(C)[C@@H](Cc2ccccc2)C(=O)N1C` [Example 3062] ({CH2CO}-F[NMeF][NMeNle][Sar]DV[NMeF]Y[Sar][Bta]YLCG-NH2; thioether N-13), the IC50 in experiment [1] (setting [3]) lay within 4.78 to 72.9 nM; on Human PD-L1/PD-1, 0.385 to 6.74 nM.
The matching figures for `CCCC[C@H]1C(=O)N(C)[C@@H](CCCC)C(=O)N[C@@H](CCCNC(=N)N)C(=O)N[C@H](C(=O)NCC(N)=O)CSCC(=O)N[C@@H](Cc2ccccc2)C(=O)N(C)[C@@H](C)C(=O)N[C@@H](CC(N)=O)C(=O)N2CCC[C@H]2C(=O)N[C@@H](Cc2cnc[nH]2)C(=O)N[C@@H](CC(C)C)C(=O)N[C@@H](CC(N)=O)C(=O)N[C@@H](Cc2c[nH]c3ccccc23)C(=O)N[C@@H](CO)C(=O)N[C@@H](Cc2c[nH]c3ccccc23)C(=O)N1C` [Example 1075] ({CH2CO}-F[NMeA]NPHLNWSW[NMeNle][NMeNle]RCG-NH2; thioether N-14): above 74.3 nM and above 30.5 nM.
On to `CC(C)C[C@@H]1NC(=O)[C@@H](Cc2c[nH]cn2)NC(=O)[C@@H]2CCCN2C(=O)[C@@H](CC(N)=O)NC(=O)C(C)N(C)C(=O)[C@H](Cc2ccc(O)cc2)NC(=O)CSC[C@H](C(=O)NCC(N)=O)NC(=O)[C@H](C)NC(=O)[C@@H](CC(=O)O)N(C)C(=O)[C@@H](CCCCN)N(C)C(=O)[C@H](Cc2c[nH]c3ccccc23)NC(=O)[C@H](CO)NC(=O)[C@@H](Cc2c[nH]c3ccccc23)NC(=O)C2C[C@@H](O)CN2C1=O` (stereo partly shown) [Example 1221], for which the figures for the IC50 (in experiment [1] (setting [3]); at Human PD-L1/PD-1) were above 74.3 nM and above 30.5 nM, respectively.
On the same counts, the results for `CCCC[C@H]1C(=O)N(C)[C@@H](CCCC)C(=O)N[C@@H](CCCNC(=N)N)C(=O)N[C@H](C(=O)NCC(N)=O)CSCC(=O)N[C@@H](Cc2ccc(O)cc2)C(=O)N(C)[C@@H](C)C(=O)N[C@@H](CC(N)=O)C(=O)N2CCC[C@H]2C(=O)N[C@@H](Cc2cnc[nH]2)C(=O)N[C@@H](CC(C)C)C(=O)N2C[C@H](O)C[C@H]2C(=O)N[C@@H](Cc2c[nH]c3ccccc23)C(=O)N[C@@H](CO)C(=O)N[C@@H](Cc2c[nH]c3ccccc23)C(=O)N1C` [Example 1119] are 0.158 to 4.71 nM and 6.76 to 30.3 nM.

These data come from patent US9850283B2, “Macrocyclic inhibitors of the PD-1/PD-L1 and CD80(B7-1)/PD-L1 protein/protein interactions” (BRISTOL-MYERS SQUIBB COMPANY, priority 2013, dated 2017).
